# Where “and” joins values, the source holds several entries; their conditions need not be identical. Identical values can stand only once.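 Assay format: 96-well plates, 48-hour exposure. At the GI50, growth is halved. At the TGI there is no net growth.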
# Experiments:
# Assay in all cases: NCI tumour cell line growth inhibition, 48 h
# [1] = test system: HCC-2998 colon
# [2] = test system: MALME-3M melanoma
# [3] = test system: KM12 colon
# [4] = test system: ACHN renal
# [5] = test system: BT-549 breast
# [6] = test system: SF-295 CNS
# [7] = test system: TK-10 renal
# [8] = test system: NCI/ADR-RES ovarian
# [9] = test system: CCRF-CEM leukemia
# [10] = test system: RXF 393 renal
Structure (SMILES),GI50 [1] [µM],TGI [1] [µM],GI50 [2] [µM],TGI [2] [µM],GI50 [3] [µM],TGI [3] [µM],GI50 [4] [µM],TGI [4] [µM],GI50 [5] [µM],TGI [5] [µM],GI50 [6] [µM],TGI [6] [µM],GI50 [7] [µM],TGI [7] [µM],GI50 [8] [µM],TGI [8] [µM],GI50 [9],TGI [9] [µM],GI50 [10] [µM],TGI [10] [µM]
Cc1ccc(C(CC(=O)c2ccccc2)C2C(=O)NC(=O)NC2=O)cc1 (stereo not given),> 100,> 100,> 100,> 100,> 100,> 100,> 100,> 100,> 100,> 100,> 100,> 100,> 100,> 100,> 100,> 100,> 100 µM,> 100,> 100,> 100
O=c1ccn(C2CC(O)C(CO)O2)c(=O)[nH]1 (stereo not given),> 5000,> 5000,> 5000,> 5000,> 5000,> 5000,> 5000,> 5000,> 5000,> 5000,> 5000,> 5000,> 5000,> 5000,> 5000,> 5000,95.8 µM and 110 µM,838,> 5000,> 5000
COc1cccc(C2=C(c3c(C)n(C)c4ccccc34)C(=O)NC2=O)c1,> 25,> 25,> 21.2,> 25,15.5,> 25,> 25,> 25,> 21.7,> 25,> 25,> 25,24.2,> 25,14,> 25,> 25 µM,> 25,12,> 25
COc1ccc(/C=C/C(=O)c2ccc(O)c(CN3CCN(c4cc5c(cc4F)c(=O)c(C(=O)O)cn5C4CC4)CC3)c2)cc1,4.15,> 100,1.59,16.4,1.27,> 100,2.18,17.9,1.28,> 100,2.1,> 100,7.16,74.6,4.44,> 100,0.805 µM,> 100,1.42,60.3
COc1ccc2c(=O)cc(-c3ccncc3)oc2c1OC,,48.4,,96.9,,96.2,,> 100,,98.4,,> 100,,> 100,,> 100,,71.1,,69.6
COc1cc2ccccc2oc1=O,,> 100,,> 100,,> 100,,> 100,,> 100,,> 100,,> 100,,> 100,,> 100,,48.5
C=C1/C(=C\C=C2/CCC[C@]3(C)[C@@H]([C@H](C)CCCC(C)(C)O)CC[C@@H]23)C[C@@H](OC(=O)CBr)C[C@@H]1O,13.6,27.5,0.184,0.674,0.4,3.03,0.709,5.13,1.96,4.36,6.81,20.3,6.88,21.6,1.95,18.7,0.0491 µM,0.307,2.6,7.41
